From BigSolDB 2.1

## CCC(C)n1ncn(-c2ccc(N3CCN(c4ccc(OC[C@H]5CO[C@](Cn6cncn6)(c6ccc(Cl)cc6Cl)O5)cc4)CC3)cc2)c1=O (mixture of isomers)
In DMSO, 283.15 K
  solubility (mole fraction): 0.000184
In DMSO, 288.15 K
  solubility (mole fraction): 0.000237
In DMSO, 293.15 K
  solubility (mole fraction): 0.000309
In DMSO, 298.15 K
  solubility (mole fraction): 0.000391
In DMSO, 303.15 K
  solubility (mole fraction): 0.000469
In DMSO, 308.15 K
  solubility (mole fraction): 0.000579
In DMSO, 313.15 K
  solubility (mole fraction): 0.000707
In DMSO, 318.15 K
  solubility (mole fraction): 0.000888
In DMSO, 323.15 K
  solubility (mole fraction): 0.00107
In ethanol, 283.15 K
  solubility (mole fraction): 6.88e-06
In ethanol, 288.15 K
  solubility (mole fraction): 9.34e-06
In ethanol, 293.15 K
  solubility (mole fraction): 1.26e-05
In ethanol, 298.15 K
  solubility (mole fraction): 1.66e-05
In ethanol, 303.15 K
  solubility (mole fraction): 2.16e-05
In ethanol, 308.15 K
  solubility (mole fraction): 2.83e-05
In ethanol, 313.15 K
  solubility (mole fraction): 3.73e-05
In ethanol, 318.15 K
  solubility (mole fraction): 5.03e-05
In ethanol, 323.15 K
  solubility (mole fraction): 6.36e-05
In isopropanol, 283.15 K
  solubility (mole fraction): 8.3e-06
In isopropanol, 288.15 K
  solubility (mole fraction): 1.04e-05
In isopropanol, 293.15 K
  solubility (mole fraction): 1.3e-05
In isopropanol, 298.15 K
  solubility (mole fraction): 1.57e-05
In isopropanol, 303.15 K
  solubility (mole fraction): 2.02e-05
In isopropanol, 308.15 K
  solubility (mole fraction): 2.48e-05
In isopropanol, 313.15 K
  solubility (mole fraction): 3.02e-05
In isopropanol, 318.15 K
  solubility (mole fraction): 3.65e-05
In isopropanol, 323.15 K
  solubility (mole fraction): 4.37e-05
In methanol, 283.15 K
  solubility (mole fraction): 1.64e-05
In methanol, 288.15 K
  solubility (mole fraction): 2.14e-05
In methanol, 293.15 K
  solubility (mole fraction): 2.81e-05
In methanol, 298.15 K
  solubility (mole fraction): 3.7e-05
In methanol, 303.15 K
  solubility (mole fraction): 4.9e-05
In methanol, 308.15 K
  solubility (mole fraction): 6.17e-05
In methanol, 313.15 K
  solubility (mole fraction): 7.78e-05
In methanol, 318.15 K
  solubility (mole fraction): 9.7e-05
In methanol, 323.15 K
  solubility (mole fraction): 0.00012
In water, 283.15 K
  solubility (mole fraction): 4.17e-09
In water, 288.15 K
  solubility (mole fraction): 6.55e-09
In water, 293.15 K
  solubility (mole fraction): 1.03e-08
In water, 298.15 K
  solubility (mole fraction): 1.55e-08
In water, 303.15 K
  solubility (mole fraction): 2.6e-08
In water, 308.15 K
  solubility (mole fraction): 3.69e-08
In water, 313.15 K
  solubility (mole fraction): 5.55e-08
In water, 318.15 K
  solubility (mole fraction): 8.36e-08
In water, 323.15 K
  solubility (mole fraction): 1.21e-07
